Laboratory results as given in ChEMBL document CHEMBL4000169, “Overexpression of the Global Regulator LaeA in Chaetomium globosum Leads to the Biosynthesis of Chaetoglobosin Z” (J Nat Prod, 2016).

These compounds were tested on HepG2 (assay: Cytotoxicity against human HepG2 cells by MTT assay).
Format: functional, cell-based

| SMILES | IC50 [µM] |
| --- | --- |
| CC1=C(C)[C@H]2[C@H](Cc3c[nH]c4ccccc34)NC(=O)[C@]23C(=O)CCC(=O)[C@H](O)/C(C)=C/[C@@H](C)C/C=C/[C@H]3[C@@H]1O | 8.5 |
| C/C1=C\[C@@H](C)C/C=C/[C@H]2C(=O)[C@@H](C)[C@@H](C)[C@H]3[C@H](Cc4c[nH]c5ccccc45)NC(=O)[C@]32C(=O)/C=C/C(=O)[C@@H]1O | 2.9 |
| CC1=C(O)C(=O)[C@H]2CC(=O)[C@@]34C(=O)N[C@@H](Cc5c[nH]c6ccccc56)[C@@H]3C(C)=C(C)[C@@H](O)[C@@H]4/C=C/C[C@H](C)[C@H]12 | 12.8 |
| C/C1=C\[C@@H](C)C/C=C/[C@H]2[C@@H]3O[C@]3(C)[C@@H](C)[C@H]3[C@H](Cc4c[nH]c5ccccc45)NC(=O)[C@]32C(=O)/C=C/C(=O)[C@@H]1O [CHAETOGLOBOSIN A] | 6.3 |
| CC1=C(C)[C@H]2[C@H](Cc3c[nH]c4ccccc34)NC(=O)[C@]23C(=O)CC[C@H](O)C(=O)/C(C)=C/[C@@H](C)C/C=C/[C@H]3[C@@H]1O [CHAETOGLOBOSIN E] | 3.6 |
| CC1=C(C)[C@H]2[C@H](Cc3c[nH]c4ccccc34)NC(=O)[C@]23C(=O)/C=C/C(=O)[C@H](O)/C(C)=C/[C@@H](C)C/C=C/[C@H]3[C@@H]1O [CHEATOGLOBOSIN B] | 5.2 |
| COc1cc([C@@H]2c3cc4c(cc3[C@@H](O[C@@H]3O[C@@H]5CO[C@@H](C)O[C@H]5[C@H](O)[C@H]3O)[C@H]3COC(=O)[C@H]23)OCO4)cc(OC)c1O [ETOPOSIDE] | 15.8 |
